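Cultured in 96-well plates, cells were exposed to test compound for 48 hours across five concentrations. GI50 marks 50% less growth. TGI denotes the concentration required for complete inhibition of growth.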 Residues, ends and D or L forms follow the SMILES beside them. *: point of attachment. Cbz = O=C(OCc1ccccc1)*
What was measured:
Experiment in all cases: growth of human tumour cells (NCI), 48 h
UACC-257 melanoma = system: UACC-257 melanoma
786-0 renal = system: 786-0 renal
OVCAR-8 ovarian = system: OVCAR-8 ovarian
EKVX NSCLC = system: EKVX NSCLC
IGROV1 ovarian = system: IGROV1 ovarian
OVCAR-5 ovarian = system: OVCAR-5 ovarian
CAKI-1 renal = system: CAKI-1 renal
HL-60(TB) leukemia = system: HL-60(TB) leukemia
NCI/ADR-RES ovarian = system: NCI/ADR-RES ovarian
HCT-15 colon = system: HCT-15 colon

Row | SMILES | GI50 (UACC-257 melanoma) [µM] | TGI (UACC-257 melanoma) [µM] | GI50 (786-0 renal) [µM] | TGI (786-0 renal) [µM] | GI50 (OVCAR-8 ovarian) [µM] | TGI (OVCAR-8 ovarian) [µM] | GI50 (EKVX NSCLC) [µM] | TGI (EKVX NSCLC) [µM] | GI50 (IGROV1 ovarian) [µM] | TGI (IGROV1 ovarian) [µM] | GI50 (OVCAR-5 ovarian) [µM] | TGI (OVCAR-5 ovarian) [µM] | GI50 (CAKI-1 renal) [µM] | TGI (CAKI-1 renal) [µM] | GI50 (HL-60(TB) leukemia) [µM] | TGI (HL-60(TB) leukemia) [µM] | GI50 (NCI/ADR-RES ovarian) [µM] | TGI (NCI/ADR-RES ovarian) [µM] | GI50 (HCT-15 colon) [µM] | TGI (HCT-15 colon) [µM]
1 | CN(C)CCS(=O)(=O)Nc1cc(-c2ccc3ncc(C#N)c(Nc4ccc(F)c(Cl)c4)c3c2)cnc1Cl | 0.273 | 3.51 | 0.307 | 3.61 | 0.387 | > 32.6 | 0.23 | 1.47 | 0.0777 | 0.287 | 0.303 | 4.9 | 0.0913 | 0.511 | 0.0708 | 0.684 | 2.11 | > 29.3 |  | 
2 | CCOC(=O)c1cc(NS(=O)(=O)c2ccc(C)cc2)cc(C(=O)OCC)c1 | 45.5 | > 100 | 53.7 | > 100 |  |  | 31.7 | > 100 | 51.7 | > 100 | 37.9 | > 100 | 43.5 | > 100 | 26.5 | > 100 | 23.6 | > 100 | 39.6 | > 100
3 | Nc1ncn([C@H]2C[C@H](OP(=O)(O)OC[C@H]3O[C@@H](n4cnc5c(=O)[nH]c(N)nc54)C[C@@H]3O)[C@@H](CO)O2)c(=O)n1 | > 100 | > 100 | 71.8 | > 100 | 26.6 | > 100 | > 100 | > 100 | > 100 | > 100 | > 100 | > 100 | > 100 | > 100 | > 100 | > 100 | > 100 | > 100 |  | 
4 | O=C1c2c(Cl)c(Cl)c(Cl)c(Cl)c2C(=O)C2(Cl)CC=CCC12Cl (centres undefined) | 1.53 | 2.95 | 2 | 3.62 | 1.64 | 3.12 | 2.64 | 7.81 | 1.81 | 3.86 | 2.51 | 5.74 | 1.93 | 3.68 | 1.9 | 5.04 | 3.41 | 13.2 | 1.19 | 2.83
5 | Cc1cccc(Cl)c1NC(=O)c1cnc(Nc2cc(N3CCOCC3)cc(S(C)(=O)=O)c2)s1 | > 4.82 | > 10 | 0.171 | > 5.31 | 0.516 | > 10 | 1.24 | > 10 | 0.0541 | 0.521 | 0.257 | > 10 | 0.0975 | 0.742 | 9.76 | > 10 | 9.94 | > 10 | 3 | > 10
6 | COc1ccc2c(c1)C(c1cc(OC)c3c(c1)OCO3)C1=C(COC1=O)N2 (centres undefined) |  | > 100 | 0.469 | > 36 | 0.504 | > 40.7 | 3.44 | > 100 | 0.687 | > 84.5 | 0.629 | > 100 | 0.769 | > 100 | 0.285 | 1.07 | 0.292 |  | 0.472 | > 65.1
7 | COc1cc2nc3cc([N+](=O)[O-])ccc3c(NCCNCC(C)O)c2cc1OC (centres undefined) | 1.63 | 3.67 | 1.23 | 3.6 | 0.587 | 3.13 | 1.62 | 5.34 | 0.495 | 2.26 | 2.61 | 9.41 | 2.5 | 10.9 | 2.52 | 6.66 | 7.42 | 23.6 | 3.27 | 13.1
8 | CC(C)C[C@@H](C=O)NC(=O)[C@H](CC(C)C)NC(=O)[C@H](CC(C)C)NC(=O)OCc1ccccc1 (Cbz-Leu-Leu-Leu-aldehyde) | 0.251 | 0.628 | 0.349 | 1.4 | 0.523 | 4.66 | 0.682 | > 100 | 0.444 | 3.08 | 0.643 | 4.74 |  |  | 0.33 | 1.89 | 3.26 | > 100 | 0.465 | 10.2
9 | CN(C)Cc1c(C(=O)NCCOc2ccc(C(=O)NO)cc2)oc2ccccc12 | 0.0689 | 0.592 | 0.405 | 9.16 | 0.0807 | 3.99 | 0.346 | > 100 | 0.438 | 3.6 | 0.115 | 1.3 | 0.311 | 1.57 | 0.303 | 2.19 | 0.306 | 4.27 | 1.9 | > 35.9
10 | CN1C(=O)C2(c3ccccc31)C1CC3C(CO1)C1C2C3(CO)CN1C#N (centres undefined) |  | > 100 |  | > 100 |  | > 100 |  | > 100 |  | > 100 |  | > 100 |  | > 100 |  | > 100 |  | > 100 |  | > 100
11 | CCCN(CCC)c1ccc(C=O)c(C)c1 | 19.2 | > 96.3 | 43.9 | > 100 | 57.2 | > 100 | 24.2 | > 100 | 61 | > 100 | 58.5 | > 100 | 33.7 | > 100 | 30.8 | > 84.4 | 36.1 | > 100 | 41.6 | > 100
12 | CC1(C)CCC(C)(C)c2cc(NC(=O)c3ccc(C(=O)O)cc3)ccc21 |  | > 100 |  | > 85.4 |  | > 100 |  | > 100 |  | > 75.6 |  | > 95.2 |  | 98.6 |  | > 100 |  | > 86.1 |  | > 64
13 | CN(C)CCOc1ccccc1NC1=C(Cl)C(=O)C(Nc2ccccc2OCCN(C)C)=C(Cl)C1=O |  | > 41.1 | 1.64 | 5.92 | 4.16 | 20.7 | 5.33 | 19.1 | 0.636 | 1.48 | 10.2 | > 38.6 | 1.14 | 2.36 | 0.658 | 2.06 | 24.6 | > 100 | 0.845 | 2.61

From PubChem BioAssay (NCI)
